Experimental data from patent US7034041B2 (priority 2000, dated 2006).
Where a name gives a salt, the structure may show the parent alone.

Biological target: (+)-MK801 binding site of the ionotropic NMDA receptor
Design: species or system rat

| SMILES | Ki |
| --- | --- |
| Cc1ccccc1C1=CCN(C2(c3ccccc3)CCCCC2)CC1 [Example 7, 4-(2-methylphenyl)-1-(1-phenylcyclohexyl)-1,2,3,6-tetrahydropyridine hydrochloride] | 5.3 µM |
| Clc1ccccc1C1=CCN(C2(c3ccccc3)CCCCC2)CC1 [Example 11, 4-(2-chlorophenyl)-1-(1-phenylcyclohexyl)-1,2,3,6-tetrahydropyridine hydrochloride] | 2.8 µM |
